What was measured:
[1] = target: JAK1 (Homo sapiens (Human), UniProt P23458); assay: JAK1 enzyme activity assay (Thermo Fisher SelectScreen, Z-lyte); assay type: biochemical; details: read-out: JAK1 Inhibition IC50
Procedure, shortened: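 Z-lyte assay with 21.2-91.5 ng JAK and […] Tyr 06 in 50 mM HEPES pH 7.0, 10 mM MgCl2, 1 mM EGTA, 0.01% BRIJ-35; 1 h kinase reaction, then development reagent. 11-point dose-response from […] to 0.34 nM, 2% DMSO vehicle; IC50 from 4-parameter logistic fit of emission ratio.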

[2] = target: JAK2 (Homo sapiens (Human), UniProt O60674); assay: JAK2 enzyme activity assay (Thermo Fisher SelectScreen, Z-lyte); assay type: biochemical; details: read-out: JAK2 Inhibition IC50
Procedure, shortened: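 IC50 values derive from a 4-parameter logistic fit of emission ratio across an 11-point series ([…] to 0.34 nM, 2% DMSO vehicle). Reaction: 1 h, 0.12-0.5 ng JAK2, […] Tyr 06 in HEPES pH 7.5 buffer with MgCl2, EGTA, BRIJ-35, read by Z-lyte development.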

[3] = target: JAK3 (a.a. 781-1124) (Homo sapiens (Human), UniProt P52333); assay: JAK3 enzyme activity assay (SRCtide phosphorylation, Caliper); assay type: biochemical; details: 1 uM ATP; read-out: JAK3 Inhibition IC50
[4] = target: Tyk-2 (Homo sapiens (Human), UniProt P29597); assay: Tyk-2 enzyme activity assay (Thermo Fisher SelectScreen, Z-lyte); assay type: biochemical; details: read-out: Tyk-2 Inhibition IC50
Procedure, shortened: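 Z-lyte FRET assay: 3.75–15 ng TYK2 with […] Tyr 03 peptide in HEPES pH 7.0, MgCl2, EGTA, BRIJ-35; 1 h reaction, then development reagent. 11-point dose-response, 2% DMSO; IC50 via 4-parameter fit of emission ratio, background without enzyme.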

[5] = system: IL-2 stimulated STAT5 phosphorylation on Tyr694 (JAK1/3); assay: JAK1/3 cellular target modulation: IL-2 stimulated phospho-STAT5 in PBMC; assay type: cell-based; details: human PBMC, IL-2 25 ng/ml; read-out: IL2-STAT5 IC50
Procedure, shortened: (§1)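 Thawed human PBMC (200,000/well, RPMI/10% FBS) were preincubated with compound for 1 h at 37 °C, added from 10× stocks in 1% DMSO. Stimulation and read-out: IL-2 25 ng/ml, 5 min, pSTAT5 by MSD; IL-12 1.7 ng/ml, 25 min, pSTAT4 by MSD; IFNγ 10 ng/ml, 10 min, pSTAT1 by sandwich ELISA.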

[6] = system: IFNγ stimulated STAT1 phosphorylation on Tyr701 (JAK1/2); assay: JAK1/2 cellular target modulation: IFNγ stimulated phospho-STAT1 in PBMC; assay type: cell-based; details: human PBMC, IFNγ 10 ng/ml; read-out: Infγ-STAT1 IC50
Procedure, shortened: as §1

[7] = system: IL-12 stimulated STAT4 phosphorylation on Tyr693 (JAK2/TYK2); assay: JAK2/TYK2 cellular target modulation: IL-12 stimulated phospho-STAT4 in PBMC; assay type: cell-based; details: human PBMC, IL-12 1.7 ng/ml; read-out: IL12-STAT4 IC50
Procedure, shortened: as §1

Chain of JAK3 (a.a. 781-1124) (P52333 781-1124): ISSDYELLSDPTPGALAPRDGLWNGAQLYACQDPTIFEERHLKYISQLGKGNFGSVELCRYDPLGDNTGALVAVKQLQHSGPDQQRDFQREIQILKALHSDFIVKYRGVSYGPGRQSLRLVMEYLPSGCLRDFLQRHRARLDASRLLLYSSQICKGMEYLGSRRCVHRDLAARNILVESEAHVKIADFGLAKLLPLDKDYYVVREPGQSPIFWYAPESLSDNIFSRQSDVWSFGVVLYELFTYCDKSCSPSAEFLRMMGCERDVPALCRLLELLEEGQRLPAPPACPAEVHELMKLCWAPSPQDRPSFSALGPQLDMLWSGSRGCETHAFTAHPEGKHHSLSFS
Chain of JAK1 (P23458 whole entry): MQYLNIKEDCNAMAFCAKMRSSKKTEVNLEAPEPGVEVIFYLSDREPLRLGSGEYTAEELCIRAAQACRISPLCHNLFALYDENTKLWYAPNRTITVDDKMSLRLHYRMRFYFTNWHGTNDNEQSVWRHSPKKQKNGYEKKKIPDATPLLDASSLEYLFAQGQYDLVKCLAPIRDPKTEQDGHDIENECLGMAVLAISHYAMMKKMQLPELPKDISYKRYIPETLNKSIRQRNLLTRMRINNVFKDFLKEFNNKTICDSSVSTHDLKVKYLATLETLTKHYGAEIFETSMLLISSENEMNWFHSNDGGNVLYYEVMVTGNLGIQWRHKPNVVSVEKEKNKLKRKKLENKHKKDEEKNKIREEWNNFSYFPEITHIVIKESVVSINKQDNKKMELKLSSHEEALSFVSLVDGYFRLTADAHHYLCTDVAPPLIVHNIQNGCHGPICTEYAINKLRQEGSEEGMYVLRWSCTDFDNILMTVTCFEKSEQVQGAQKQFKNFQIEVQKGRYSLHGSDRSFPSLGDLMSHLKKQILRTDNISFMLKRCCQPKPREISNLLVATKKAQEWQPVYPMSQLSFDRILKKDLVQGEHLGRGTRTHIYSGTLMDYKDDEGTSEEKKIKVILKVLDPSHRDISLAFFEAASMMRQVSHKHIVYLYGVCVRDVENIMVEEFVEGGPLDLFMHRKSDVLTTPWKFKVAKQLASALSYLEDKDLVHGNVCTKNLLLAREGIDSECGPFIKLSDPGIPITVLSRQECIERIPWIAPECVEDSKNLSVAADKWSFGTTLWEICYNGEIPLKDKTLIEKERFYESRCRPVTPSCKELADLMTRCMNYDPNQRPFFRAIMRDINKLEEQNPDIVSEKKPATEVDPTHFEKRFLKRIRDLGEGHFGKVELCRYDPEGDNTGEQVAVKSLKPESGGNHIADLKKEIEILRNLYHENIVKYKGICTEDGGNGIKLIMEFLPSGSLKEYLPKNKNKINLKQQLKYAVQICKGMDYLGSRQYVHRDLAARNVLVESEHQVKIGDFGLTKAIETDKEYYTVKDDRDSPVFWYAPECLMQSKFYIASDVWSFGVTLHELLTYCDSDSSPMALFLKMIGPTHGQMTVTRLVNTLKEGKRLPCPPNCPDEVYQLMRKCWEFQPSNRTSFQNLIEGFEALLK
Chain of Tyk-2 (P29597 whole entry): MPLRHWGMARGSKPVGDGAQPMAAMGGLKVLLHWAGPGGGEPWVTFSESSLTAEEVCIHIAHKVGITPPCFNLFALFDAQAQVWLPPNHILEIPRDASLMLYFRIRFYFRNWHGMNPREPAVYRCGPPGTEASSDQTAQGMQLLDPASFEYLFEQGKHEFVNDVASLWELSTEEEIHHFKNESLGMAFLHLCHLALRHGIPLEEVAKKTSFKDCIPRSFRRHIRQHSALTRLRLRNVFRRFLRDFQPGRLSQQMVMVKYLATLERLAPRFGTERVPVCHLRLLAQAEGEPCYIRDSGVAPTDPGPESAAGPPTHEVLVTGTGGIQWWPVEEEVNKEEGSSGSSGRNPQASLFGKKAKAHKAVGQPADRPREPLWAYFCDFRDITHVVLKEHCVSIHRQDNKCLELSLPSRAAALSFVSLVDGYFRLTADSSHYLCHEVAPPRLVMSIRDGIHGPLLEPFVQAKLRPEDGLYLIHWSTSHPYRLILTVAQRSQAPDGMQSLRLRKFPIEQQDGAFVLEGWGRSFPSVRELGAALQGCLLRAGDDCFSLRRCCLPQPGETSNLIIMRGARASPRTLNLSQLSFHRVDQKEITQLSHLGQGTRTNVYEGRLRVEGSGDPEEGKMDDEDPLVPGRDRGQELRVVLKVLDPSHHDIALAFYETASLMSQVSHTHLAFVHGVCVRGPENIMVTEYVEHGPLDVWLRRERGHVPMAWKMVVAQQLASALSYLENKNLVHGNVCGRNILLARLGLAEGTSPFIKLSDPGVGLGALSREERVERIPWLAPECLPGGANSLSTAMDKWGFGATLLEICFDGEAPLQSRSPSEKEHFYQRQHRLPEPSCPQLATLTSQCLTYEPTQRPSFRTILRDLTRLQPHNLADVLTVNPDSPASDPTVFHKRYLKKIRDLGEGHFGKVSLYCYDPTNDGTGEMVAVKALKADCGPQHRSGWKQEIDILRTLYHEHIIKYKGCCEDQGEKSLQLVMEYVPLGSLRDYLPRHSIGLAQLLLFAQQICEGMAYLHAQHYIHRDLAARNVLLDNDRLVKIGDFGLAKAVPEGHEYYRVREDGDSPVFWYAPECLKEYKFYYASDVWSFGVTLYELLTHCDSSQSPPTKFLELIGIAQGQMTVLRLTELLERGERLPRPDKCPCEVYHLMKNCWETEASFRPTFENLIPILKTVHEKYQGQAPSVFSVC
Chain of JAK2 (O60674 whole entry): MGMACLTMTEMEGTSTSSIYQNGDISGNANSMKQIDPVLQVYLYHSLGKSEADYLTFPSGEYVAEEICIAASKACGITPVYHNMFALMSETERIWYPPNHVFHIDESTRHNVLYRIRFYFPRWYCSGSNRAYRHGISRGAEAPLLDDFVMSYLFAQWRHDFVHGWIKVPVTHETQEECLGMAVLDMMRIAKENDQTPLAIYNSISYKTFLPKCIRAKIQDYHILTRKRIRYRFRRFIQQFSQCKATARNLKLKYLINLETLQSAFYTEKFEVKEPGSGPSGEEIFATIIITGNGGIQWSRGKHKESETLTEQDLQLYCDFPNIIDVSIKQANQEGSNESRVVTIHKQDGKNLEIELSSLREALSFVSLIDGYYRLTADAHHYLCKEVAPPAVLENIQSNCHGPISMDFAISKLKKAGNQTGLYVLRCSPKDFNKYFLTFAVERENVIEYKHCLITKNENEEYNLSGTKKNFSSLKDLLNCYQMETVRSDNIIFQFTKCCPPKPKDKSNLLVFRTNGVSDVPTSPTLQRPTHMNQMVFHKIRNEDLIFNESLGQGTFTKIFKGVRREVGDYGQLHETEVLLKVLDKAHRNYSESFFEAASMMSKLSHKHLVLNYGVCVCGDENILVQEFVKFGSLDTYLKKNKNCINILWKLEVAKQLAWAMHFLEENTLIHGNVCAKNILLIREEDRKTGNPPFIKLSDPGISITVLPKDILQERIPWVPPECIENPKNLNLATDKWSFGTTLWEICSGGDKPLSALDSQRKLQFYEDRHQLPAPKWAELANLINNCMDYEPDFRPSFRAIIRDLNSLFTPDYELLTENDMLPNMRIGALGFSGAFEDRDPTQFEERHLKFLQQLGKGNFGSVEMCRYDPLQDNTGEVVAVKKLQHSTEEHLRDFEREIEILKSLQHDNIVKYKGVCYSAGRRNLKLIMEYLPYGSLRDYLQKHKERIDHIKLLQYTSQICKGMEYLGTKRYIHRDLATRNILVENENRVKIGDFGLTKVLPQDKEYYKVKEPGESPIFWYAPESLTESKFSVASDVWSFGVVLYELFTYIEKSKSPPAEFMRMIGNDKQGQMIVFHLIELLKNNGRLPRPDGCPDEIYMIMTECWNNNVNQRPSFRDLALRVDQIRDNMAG

**Q.** What does the source list for `C[C@H]1C[C@@H](Nc2c(-c3nncs3)cnc3[nH]ccc23)CN(C(=O)CC#N)C1` [Example 68, 3-((3R,5S)-3-((5-(1,3,4-thiadiazol-2-yl)-1H-pyrrolo[2,3-b]pyridin-4-yl)amino)-5-methylpiperidin-1-yl)-3-oxopropanenitrile]?
**A.** IC50 [1]: ≤ 10 nM; IC50 [2]: ≤ 10 nM; IC50 [3]: ≤ 10 nM; IC50 [4]: ≤ 10 nM; IC50 [5]: ≤ 100 nM; IC50 [6]: ≤ 100 nM; IC50 [7]: ≤ 100 nM

**Q.** Which IC50 [1] does the source give for `N#CCC(=O)N1CCC[C@@H](Nc2c(-c3ncco3)cnc3[nH]ccc23)C1` [Example 5, (R)-3-(3-((5-(oxazol-2-yl)-1H-pyrrolo[2,3-b]pyridin-4-yl)amino)piperidin-1-yl)-3-oxopropanenitrile] here?
**A.** ≤ 10 nM

**Q.** What about the IC50 [2] of the same compound?
**A.** ≤ 10 nM

**Q.** What about the IC50 [3] of the same compound?
**A.** ≤ 10 nM

**Q.** What about the IC50 [4] of the same compound?
**A.** ≤ 10 nM

**Q.** And the IC50 [5]?
**A.** ≤ 100 nM

**Q.** What about the IC50 [6] of the same compound?
**A.** ≤ 100 nM

**Q.** What about the IC50 [7] of the same compound?
**A.** 100 to 1000 nM

**Q.** `C[S+]([O-])c1cnc(-c2cnc3[nH]ccc3c2N[C@@H]2CCCN(C(=O)CC#N)C2)s1` (stereo partly drawn) [Example 45, 3-((3R)-3-((5-(5-(methylsulfinyl)thiazol-2-yl)-1H-pyrrolo[2,3-b]pyridin-4-yl)amino)piperidin-1-yl)-3-oxopropanenitrile] was tested. Which IC50 [1] did it give?
**A.** ≤ 10 nM

**Q.** What about the IC50 [2] of the same compound?
**A.** ≤ 10 nM

**Q.** What about the IC50 [3] of the same compound?
**A.** ≤ 10 nM

**Q.** And the IC50 [4]?
**A.** ≤ 10 nM

**Q.** What about the IC50 [5] of the same compound?
**A.** 100 to 1000 nM

**Q.** And the IC50 [6]?
**A.** 100 to 1000 nM

**Q.** And the IC50 [7]?
**A.** > 1000 nM

**Q.** How did the IC50 [1] turn out when `N#CCC(=O)N1CCC[C@@H](Nc2c(-c3cccc(CO)n3)cnc3[nH]ccc23)C1` [Example 63] was run?
**A.** ≤ 10 nM

**Q.** What about the IC50 [2] of the same compound?
**A.** ≤ 10 nM

**Q.** What about the IC50 [3] of the same compound?
**A.** ≤ 10 nM

**Q.** What about the IC50 [4] of the same compound?
**A.** 10 to 100 nM

**Q.** What about the IC50 [5] of the same compound?
**A.** ≤ 100 nM

**Q.** And the IC50 [6]?
**A.** 100 to 1000 nM

**Q.** And the IC50 [7]?
**A.** > 1000 nM

**Q.** With `CN(C)C(=O)c1coc(-c2cnc3[nH]ccc3c2N[C@@H]2CCCN(C(=O)CC#N)C2)n1` [Example 34, (R)-2-(4-((1-(2-cyanoacetyl)piperidin-3-yl)amino)-1H-pyrrolo[2,3-b]pyridin-5-yl)-N,N-dimethyl-oxazole-4-carboxamide] as the compound, how does the IC50 [1] read?
**A.** ≤ 10 nM

**Q.** What about the IC50 [2] of the same compound?
**A.** 10 to 100 nM

**Q.** And the IC50 [3]?
**A.** ≤ 10 nM

**Q.** What about the IC50 [4] of the same compound?
**A.** 10 to 100 nM

**Q.** And the IC50 [5]?
**A.** 100 to 1000 nM

**Q.** What about the IC50 [6] of the same compound?
**A.** 100 to 1000 nM

**Q.** What about the IC50 [7] of the same compound?
**A.** > 1000 nM

**Q.** Which IC50 [1] does the source give for `Cc1cccc(-c2cnc3[nH]ccc3c2N[C@@H]2CCCN(C(=O)CC#N)C2)n1` [Example 20, (R)-3-(3-((5-(6-methylpyridin-2-yl)-1H-pyrrolo[2,3-b]pyridin-4-yl)amino)piperidin-1-yl)-3-oxopropanenitrile] here?
**A.** ≤ 10 nM

**Q.** What about the IC50 [2] of the same compound?
**A.** 10 to 100 nM

**Q.** What about the IC50 [3] of the same compound?
**A.** 10 to 100 nM

**Q.** And the IC50 [4]?
**A.** 100 to 1000 nM

**Q.** What about the IC50 [5] of the same compound?
**A.** ≤ 100 nM

**Q.** And the IC50 [6]?
**A.** 100 to 1000 nM

**Q.** What about the IC50 [7] of the same compound?
**A.** > 1000 nM

**Q.** With `CS(=O)(=O)c1ccc(-c2cnc3[nH]ccc3c2N[C@@H]2CCCN(C(=O)CC#N)C2)nc1` [Example 55, (R)-3-(3-((5-(5-(methylsulfonyl)pyridin-2-yl)-1H-pyrrolo[2,3-b]pyridin-4-yl)amino)piperidin-1-yl)-3-oxopropanenitrile] as the compound, how does the IC50 [1] read?
**A.** ≤ 10 nM

**Q.** And the IC50 [2]?
**A.** 10 to 100 nM

**Q.** And the IC50 [3]?
**A.** ≤ 10 nM

**Q.** What about the IC50 [4] of the same compound?
**A.** ≤ 10 nM

**Q.** What about the IC50 [5] of the same compound?
**A.** ≤ 100 nM

**Q.** And the IC50 [6]?
**A.** 100 to 1000 nM

**Q.** And the IC50 [7]?
**A.** > 1000 nM

**Q.** `C[C@H]1C[C@@H](Nc2c(-c3ncc(S(C)(=O)=O)s3)cnc3[nH]ccc23)CN(C(=O)CC#N)C1` [Example 65, 3-((3S,5R)-3-methyl-5-((5-(5-(methylsulfonyl)thiazol-2-yl)-1H-pyrrolo[2,3-b]pyridin-4-yl)amino)piperidin-1-yl)-3-oxopropanenitrile] was tested. Which IC50 [1] did it give?
**A.** ≤ 10 nM

**Q.** And the IC50 [2]?
**A.** ≤ 10 nM

**Q.** What about the IC50 [3] of the same compound?
**A.** ≤ 10 nM

**Q.** And the IC50 [4]?
**A.** ≤ 10 nM

**Q.** And the IC50 [5]?
**A.** ≤ 100 nM

**Q.** What about the IC50 [6] of the same compound?
**A.** ≤ 100 nM

**Q.** What about the IC50 [7] of the same compound?
**A.** ≤ 100 nM

**Q.** What does the source list for `Cc1ccnc(-c2cnc3[nH]ccc3c2N[C@@H]2CCCN(C(=O)CC#N)C2)c1` [Example 15, (R)-3-(3-((5-(4-methylpyridin-2-yl)-1H-pyrrolo[2,3-b]pyridin-4-yl)amino)piperidin-1-yl)-3-oxopropanenitrile]?
**A.** IC50 [1]: ≤ 10 nM; IC50 [2]: 10 to 100 nM; IC50 [3]: ≤ 10 nM; IC50 [4]: 10 to 100 nM; IC50 [5]: ≤ 100 nM; IC50 [6]: 100 to 1000 nM; IC50 [7]: > 1000 nM

**Q.** For `Cc1nccc(-c2cnc3[nH]ccc3c2N[C@@H]2C[C@H](C)CN(C(=O)CC#N)C2)n1` [Example 52, 3-((3S,5R)-3-methyl-5-((5-(2-methylpyrimidin-4-yl)-1H-pyrrolo[2,3-b]pyridin-4-yl)amino)piperidin-1-yl)-3-oxopropanenitrile], which IC50 [1] is on record?
**A.** ≤ 10 nM

**Q.** What about the IC50 [2] of the same compound?
**A.** ≤ 10 nM

**Q.** What about the IC50 [3] of the same compound?
**A.** ≤ 10 nM

**Q.** And the IC50 [4]?
**A.** ≤ 10 nM

**Q.** And the IC50 [5]?
**A.** ≤ 100 nM

**Q.** What about the IC50 [6] of the same compound?
**A.** ≤ 100 nM

**Q.** And the IC50 [7]?
**A.** 100 to 1000 nM

**Q.** For `N#CCC(=O)N1CCC[C@@H](Nc2c(-c3ncccn3)cnc3[nH]ccc23)C1` [Example 23, (R)-3-oxo-3-(3-((5-(pyrimidin-2-yl)-1H-pyrrolo[2,3-b]pyridin-4-yl)amino)piperidin-1-yl)propanenitrile], which IC50 [1] is on record?
**A.** 10 to 100 nM

**Q.** What about the IC50 [2] of the same compound?
**A.** 100 to 1000 nM

**Q.** And the IC50 [3]?
**A.** 10 to 100 nM

**Q.** And the IC50 [4]?
**A.** 100 to 1000 nM

**Q.** What about the IC50 [5] of the same compound?
**A.** 100 to 1000 nM

**Q.** What about the IC50 [6] of the same compound?
**A.** > 1000 nM

**Q.** What about the IC50 [7] of the same compound?
**A.** > 1000 nM

**Q.** How did the IC50 [1] turn out when `C[C@H]1C[C@@H](Nc2c(-c3nccs3)cnc3[nH]ccc23)CN(CC2CC2(F)F)C1` (stereo partly drawn) [Example 67, N-((3R,5S)-1-((2,2-difluorocyclopropyl)methyl)-5-methylpiperidin-3-yl)-5-(thiazol-2-yl)-1H-pyrrolo[2,3-b]pyridin-4-amine] was run?
**A.** 10 to 100 nM

**Q.** And the IC50 [2]?
**A.** 10 to 100 nM

**Q.** And the IC50 [3]?
**A.** ≤ 10 nM

**Q.** What about the IC50 [4] of the same compound?
**A.** 10 to 100 nM

**Q.** What about the IC50 [5] of the same compound?
**A.** 100 to 1000 nM

**Q.** What about the IC50 [6] of the same compound?
**A.** 100 to 1000 nM

**Q.** And the IC50 [7]?
**A.** > 1000 nM

**Q.** What does the source list for `CS(=O)(=O)c1cnc(-c2cnc3[nH]ccc3c2N[C@@H]2CCCN(CCC#N)C2)s1` [Example 47, (R)-3-(3-((5-(5-(methylsulfonyl)thiazol-2-yl)-1H-pyrrolo[2,3-b]pyridin-4-yl)amino)piperidin-1-yl)propanenitrile]?
**A.** IC50 [1]: 10 to 100 nM; IC50 [2]: 10 to 100 nM; IC50 [3]: 10 to 100 nM; IC50 [4]: 10 to 100 nM; IC50 [5]: 100 to 1000 nM; IC50 [6]: > 1000 nM; IC50 [7]: > 1000 nM

**Q.** `COc1nccc(-c2cnc3[nH]ccc3c2N[C@@H]2CCCN(C(=O)CC#N)C2)n1` [Example 43, (R)-3-(3-((5-(2-methoxypyrimidin-4-yl)-1H-pyrrolo[2,3-b]pyridin-4-yl)amino)piperidin-1-yl)-3-oxopropanenitrile] was tested. Which IC50 [1] did it give?
**A.** ≤ 10 nM

**Q.** What about the IC50 [2] of the same compound?
**A.** 10 to 100 nM

**Q.** What about the IC50 [3] of the same compound?
**A.** 10 to 100 nM

**Q.** And the IC50 [4]?
**A.** 10 to 100 nM

**Q.** And the IC50 [5]?
**A.** ≤ 100 nM

**Q.** And the IC50 [6]?
**A.** 100 to 1000 nM

**Q.** What about the IC50 [7] of the same compound?
**A.** > 1000 nM
